From ChEMBL document CHEMBL5150057, “Making Protein Degradation Visible: Discovery of Theranostic PROTACs for Detecting and Degrading NAMPT” (J Med Chem, 2022)
Values belong to the molecule of their own block, whether it stands above or below them. Calls of active or inactive are those of the source. The calls are words filed in the database; no cut-off is given here.

Legend:
A2780 [1] = test: Cytotoxicity against human A2780 cells assessed as cell growth inhibition incubated for 72 hrs by CCK-8 assay; type: functional, cell-based; conditions: A2780, 72 h
[2] = Drug uptake in human A2780 cells at 500 nM after 6 hrs by confocal imaging analysis; type: ADME, cell-based; conditions: a2780, 6 h, 0.5 µM
[3] = Drug uptake in human A2780 cells at 500 nM within 1 to 6 hrs by confocal imaging analysis; type: ADME, cell-based; conditions: a2780, 0.5 µM, time 1-6 hrs
[4] = MRT (0 to infinity) in Sprague-Dawley rat at 30 mg/kg, ip measured upto 24 hrs by LC-MS/MS analysis; type: ADME, organism-based; conditions: in vivo
[5] = Drug uptake in human A2780 cells at 1 uM after 30 mins by immunostaining based assay; type: ADME, cell-based; conditions: a2780, 0.5 h
HUVEC = test: Cytotoxicity against HUVEC assessed as cell growth inhibition incubated for 72 hrs by CCK-8 assay; type: toxicity, cell-based; conditions: human
[6] = Toxicity in BALB/c nude mouse xenografted with human A2780 cells at 10 to 30 mg/kg, ip administered once daily for 14 days by caliper method; type: organism-based; conditions: in vivo, 336 h, dose 10-30 mg/kg, time 14 day
[7] = Half life in Sprague-Dawley rat at 30 mg/kg, ip measured upto 24 hrs by LC-MS/MS analysis; type: ADME, organism-based; conditions: in vivo
[8] = target: von Hippel-Lindau disease tumor suppressor (Homo sapiens) (UniProt P40337); test: Binding affinity to VHL in human A2780 cells assessed as change in melting temperature at 10 uM after 2 hrs by CESTA; type: cell-based
Sequence of von Hippel-Lindau disease tumor suppressor (Homo sapiens) (P40337 whole entry, looked up): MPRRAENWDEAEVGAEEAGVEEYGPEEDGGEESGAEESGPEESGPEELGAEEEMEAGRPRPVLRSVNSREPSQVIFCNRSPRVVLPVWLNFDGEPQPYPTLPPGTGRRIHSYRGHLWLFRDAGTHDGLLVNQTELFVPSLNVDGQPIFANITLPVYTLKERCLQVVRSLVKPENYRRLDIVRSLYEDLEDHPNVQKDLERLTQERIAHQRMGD

[9] = target: T1, Nicotinamide phosphoribosyltransferase (Homo sapiens, UniProt P43490); test: Induction of NAMPT degradation in human A2780 cells at 30 nM; type: cell-based; conditions: time 1-24 hrs, TDE = time-dependent effect
Target sequence in this assay (P43490 whole entry, looked up): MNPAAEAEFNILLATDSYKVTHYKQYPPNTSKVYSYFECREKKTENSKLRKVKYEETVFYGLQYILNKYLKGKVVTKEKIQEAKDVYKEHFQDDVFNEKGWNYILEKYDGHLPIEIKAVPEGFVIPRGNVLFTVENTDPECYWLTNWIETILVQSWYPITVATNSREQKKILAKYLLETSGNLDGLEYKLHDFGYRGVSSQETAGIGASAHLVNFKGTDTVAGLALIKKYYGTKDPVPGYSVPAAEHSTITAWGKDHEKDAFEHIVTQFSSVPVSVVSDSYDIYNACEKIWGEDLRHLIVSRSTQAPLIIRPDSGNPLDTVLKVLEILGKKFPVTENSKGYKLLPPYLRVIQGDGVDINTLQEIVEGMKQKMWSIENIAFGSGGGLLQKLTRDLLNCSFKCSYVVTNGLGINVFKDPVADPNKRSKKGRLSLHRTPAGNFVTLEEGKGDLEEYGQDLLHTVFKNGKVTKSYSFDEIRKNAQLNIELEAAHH

[10] = target: T1, Nicotinamide phosphoribosyltransferase; test: Binding affinity to NAMPT in human A2780 cells assessed as change in melting temperature at 10 uM after 2 hrs by CESTA; type: cell-based
Target sequence in this assay (P43490 whole entry, looked up): as above

[11] = Photostability of compound in PBS at pH 7.4; type: physicochemical; conditions: buffer
[12] = target: T1, Nicotinamide phosphoribosyltransferase; test: Induction of NAMPT degradation in human A2780 cells at 30 nM incubated for 24 hrs in presence of MG132; type: cell-based
Target sequence in this assay (P43490 whole entry, looked up): as above

[13] = target: T1, Nicotinamide phosphoribosyltransferase; test: Induction of NAMPT degradation in human A2780 cells at greater than 50 nM after 24 hrs by Western blot analysis; type: cell-based
Target sequence in this assay (P43490 whole entry, looked up): as above

[14] = Drug uptake in human A2780 cells at 500 nM within 1 to 6 hrs by immunostaining based assay; type: ADME, cell-based; conditions: a2780, 0.5 µM, time 1-6 hrs
[15] = Cmax in Sprague-Dawley rat at 30 mg/kg, ip measured upto 24 hrs by LC-MS/MS analysis; type: ADME, organism-based; parameters: dose 30 mg/kg, time < 24 hrs, route ip; conditions: in vivo
A2780 [16] = test: Antitumor activity against human A2780 cells xenografted in BALB/c nude mouse assessed as tumor growth inhibition at 30 mg/kg, ip administered once daily for 14 days by caliper method; type: functional; conditions: A2780, 336 h, time 14 day, read-out: TGI
[17] = target: T1, Nicotinamide phosphoribosyltransferase; test: Induction of NAMPT degradation in human A2780 cells after 24 hrs by Western blot analysis; type: cell-based
A2780 [18] = test: Antitumor activity against human A2780 cells xenografted in ip dosed BALB/c nude mouse administered once daily for 14 days by caliper method; type: functional, organism-based; conditions: dose 10-30 mg/kg, time 14.0 day, DDE = dose-dependent effect
[19] = target: T1, Nicotinamide phosphoribosyltransferase; test: Inhibition of NAMPT catalytic domain (unknown origin) using NAM as substrate preincubated for 5 mins followed by substrate addition
Target sequence in this assay (P43490 whole entry): as the sequence (P43490 whole entry, looked up) above

[20] = target: T1, Nicotinamide phosphoribosyltransferase; test: Binding affinity to NAMPT in human A2780 cells by flow cytometry analysis; type: cell-based; conditions: time 0.5-24 hrs
Target sequence in this assay (P43490 whole entry, looked up): as above

A2780 [21] = test: Cytotoxicity against human A2780 cells assessed as cell growth inhibition incubated for 72 hrs in presence of (2S,4R)-1-(2-amino-3,3-dimethyl-butanoyl)-4-hydroxy-N-[(1S)-1-[4-(4-methylthiazol-5-yl)phenyl]ethyl]pyrrolidine-2-carboxamide by CCK-8 assay; type: functional, cell-based; conditions: A2780, 72 h
[22] = target: T1, Nicotinamide phosphoribosyltransferase; test: Induction of NAMPT degradation in human A2780 cells at 30 nM after 24 hrs by Western blot analysis; type: cell-based
Target sequence in this assay (P43490 whole entry, looked up): as above

[23] = Tmax in Sprague-Dawley rat at 30 mg/kg, ip measured upto 24 hrs by LC-MS/MS analysis; type: ADME, organism-based; conditions: in vivo
[24] = target: T1, Nicotinamide phosphoribosyltransferase; test: Induction of NAMPT degradation in human A2780 cells at 30 nM after 24 hrs; type: cell-based
Mus musculus = test: In vivo induction of NAMPT degradation in human A2780 cells xenografted in BALB/c mouse at 10 to 30 mg/kg, ip administered once daily for 14 days by immunofluorescence analysis; type: functional, organism-based; conditions: dose 10-30 mg/kg, time 14.0 day
[25] = target: T1, Nicotinamide phosphoribosyltransferase; test: Induction of NAMPT degradation in human A2780 cells at 30 nM after 1 hr; type: cell-based
A2780 [26] = test: Antitumor activity against human A2780 cells xenografted in BALB/c nude mouse assessed as tumor growth inhibition at 10 mg/kg, ip administered once daily for 14 days by caliper method; type: functional; conditions: A2780, 336 h, time 14 day, read-out: TGI
[27] = AUC (0 to infinity) in Sprague-Dawley rat at 30 mg/kg, ip measured upto 24 hrs by LC-MS/MS analysis; type: ADME, organism-based; parameters: time < 24 hrs, dose 30 mg/kg, route ip; conditions: in vivo
[28] = target: T1, Nicotinamide phosphoribosyltransferase; test: Induction of NAMPT degradation in human A2780 cells assessed as downregulation of NAD+ levels at 4.1 nM incubated for 24 hrs […]; type: cell-based
[29] = Toxicity in BALB/c nude mouse xenografted with human A2780 cells at 30 mg/kg, ip administered once daily for 14 days by caliper method; type: organism-based; conditions: in vivo, 336 h, time 14 day
[30] = target: T1, Nicotinamide phosphoribosyltransferase; test: Induction of NAMPT degradation in human A2780 cells at 50 nM after 24 hrs by Western blot analysis; type: cell-based
[31] = target: T1, Nicotinamide phosphoribosyltransferase; test: Induction of NAMPT degradation in human A2780 cells at 100 nM after 24 hrs by Western blot analysis; type: cell-based

Compound: CCCn1c(=O)c(-c2ccc(C(=O)NCc3cccnc3)cc2)nc2ccc(NC(=O)CCCCC(=O)N[C@H](C(=O)N3C[C@H](O)C[C@H]3C(=O)N[C@@H](C)c3ccc(-c4scnc4C)cc3)C(C)(C)C)cc21
- IC50 (A2780 [1]): 88 nM

- Drug uptake [2]: Active
- Drug uptake [3]: Active
Compound: CCCn1c(=O)c(-c2ccc(C(=O)NCc3cccnc3)cc2)nc2ccc(NC(=O)CCCCCCCCCCC(=O)N[C@H](C(=O)N3C[C@@H](O)C[C@@H]3C(=O)N[C@@H](C)c3ccc(-c4scnc4C)cc3)C(C)(C)C)cc21
- IC50 (A2780 [1]): 143 nM

- MRT inf [4]: 12.7 h
- Drug uptake [5]: Active
- half-life [7]: 9.81 h
- ΔTm [8]: > 2.62 °C
- Activity [9]: Tde
- ΔTm [10]: 5.11 °C
- Stability [11]: Stable
- Activity [12]: Active
- Activity [13]: Active
- Drug uptake [14]: Active
- Cmax [15]: 175 ng/mL
- DC50 [17]: 8.4 nM
- Activity ([17]; DDE = dose-dependent effect): Dde
- IC50 [19]: 41.9 nM
- Activity [20]: Active
- Activity [22]: Active
- Tmax [23]: 4 h
- Activity [24]: Active
- Activity [25]: Active
- AUC(0-inf) [27]: 1110 ng·h/mL
- Activity [28]: Active
Compound: CCCn1c(=O)c(-c2ccc(C(=O)NCc3cccnc3)cc2)nc2ccc(NC(=O)CCCCCCCCCCC(=O)N[C@H](C(=O)N3C[C@H](O)C[C@H]3C(=O)N[C@@H](C)c3ccc(-c4scnc4C)cc3)C(C)(C)C)cc21
- Activity (HUVEC): Non-Toxic
- Activity [6]: Non-Toxic
- inhibition in vivo at 30 mg/kg (A2780 [16]): 73%
- Activity (A2780 [18]): Dde
- IC50 (A2780 [21]): 100 nM
- Activity (Mus musculus): Active
- inhibition in vivo at 10 mg/kg (A2780 [26]): 53%
- IC50 (A2780 [1]): 12.1 nM

- IC50 [19]: 57.8 nM
Compound: CCCn1c(=O)c(-c2ccc(C(=O)NCc3cccnc3)cc2)nc2ccccc21
- Activity (HUVEC): Non-Toxic
- Activity [29]: Toxic
- IC50 (A2780 [1]): 99 nM

- Activity [30]: Active
- Activity [22]: Active
Compound: CCCn1c(=O)c(-c2ccc(C(=O)NCc3cccnc3)cc2)nc2ccc(NC(=O)CCCCCCCCC(=O)N[C@H](C(=O)N3C[C@H](O)C[C@H]3C(=O)N[C@@H](C)c3ccc(-c4scnc4C)cc3)C(C)(C)C)cc21
- IC50 (A2780 [1]): 14 nM

- Activity [22]: Active
- Activity [31]: Active
Compound: CCCn1c(=O)c(-c2ccc(C(=O)NCc3cccnc3)cc2)nc2ccc(NC(=O)CCCCCCC(=O)N[C@H](C(=O)N3C[C@H](O)C[C@H]3C(=O)N[C@@H](C)c3ccc(-c4scnc4C)cc3)C(C)(C)C)cc21
- IC50 (A2780 [1]): 20.8 nM
